The source of these data is ChEMBL document CHEMBL4145649, “Identification of the 4-Position of 3-Alkynyl and 3-Heteroaromatic Substituted Pyridine Methanamines as a Key Modification Site Eliciting Increased Potency and Enhanced Selectivity for Cytochrome P-450 2A6 Inhibition” (J Med Chem, 2018).

pIC50: −log10 of the molar value.

Data set [1] has as its target Cytochrome P450 3A4 (Homo sapiens, UniProt P08684). Put plainly: Inhibition of CYP3A4 in human liver microsomes using midazolam as substrate preincubated for 5 mins followed by addition of NADPH-regenerating system and measured after 15 mins by UPLC-MS analysis. (In general: Microsomes from liver hold many membrane-bound enzymes, among them those of drug oxidation.)

In data set [2] the target is T1, Cytochrome P450 2B6 (Homo sapiens, UniProt P20813).
T1 sequence (P20813 whole entry): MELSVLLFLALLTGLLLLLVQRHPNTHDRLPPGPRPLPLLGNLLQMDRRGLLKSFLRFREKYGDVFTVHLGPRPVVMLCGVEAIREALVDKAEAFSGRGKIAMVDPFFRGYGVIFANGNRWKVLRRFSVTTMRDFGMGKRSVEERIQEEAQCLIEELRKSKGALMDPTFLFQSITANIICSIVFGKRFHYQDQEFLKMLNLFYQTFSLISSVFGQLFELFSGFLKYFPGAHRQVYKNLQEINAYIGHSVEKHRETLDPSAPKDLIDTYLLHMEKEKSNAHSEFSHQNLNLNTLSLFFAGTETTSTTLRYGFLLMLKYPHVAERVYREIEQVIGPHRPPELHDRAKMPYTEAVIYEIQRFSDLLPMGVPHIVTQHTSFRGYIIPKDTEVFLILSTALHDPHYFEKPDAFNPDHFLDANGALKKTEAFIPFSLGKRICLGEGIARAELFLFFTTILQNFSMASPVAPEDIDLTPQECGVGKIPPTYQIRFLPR
Put plainly: Inhibition of CYP2B6 in human liver microsomes using bupropion as substrate preincubated for 5 mins followed by addition of NADPH-regenerating system and measured after 15 mins by UPLC-MS analysis.

The target of data set [3] is T2, Cytochrome P450 1A2 (Homo sapiens, UniProt P05177).
T2 sequence (P05177 whole entry): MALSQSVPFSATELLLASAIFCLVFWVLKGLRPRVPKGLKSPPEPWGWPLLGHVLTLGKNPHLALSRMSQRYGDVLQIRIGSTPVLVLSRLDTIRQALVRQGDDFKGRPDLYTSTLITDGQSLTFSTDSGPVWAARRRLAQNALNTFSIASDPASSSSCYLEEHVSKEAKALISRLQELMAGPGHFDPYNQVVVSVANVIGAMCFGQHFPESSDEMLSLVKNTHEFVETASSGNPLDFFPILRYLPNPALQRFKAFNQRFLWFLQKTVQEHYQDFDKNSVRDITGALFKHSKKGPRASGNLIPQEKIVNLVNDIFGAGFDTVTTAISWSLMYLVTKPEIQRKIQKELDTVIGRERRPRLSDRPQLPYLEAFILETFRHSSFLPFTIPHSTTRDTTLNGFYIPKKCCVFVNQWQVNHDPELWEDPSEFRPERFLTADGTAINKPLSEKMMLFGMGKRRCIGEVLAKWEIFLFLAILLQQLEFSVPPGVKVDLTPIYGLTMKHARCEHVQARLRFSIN
Put plainly: Inhibition of CYP1A2 in human liver microsomes using phenacetin as substrate preincubated for 5 mins followed by addition of NADPH-regenerating system and measured after 15 mins by UPLC-MS analysis.

For data set [4], the target named is Cytochrome P450 2E1 (Homo sapiens, UniProt P05181). Put plainly: Inhibition of CYP2E1 in human liver microsomes using chlorzoxazone as substrate preincubated for 5 mins followed by addition of NADPH-regenerating system and measured after 15 mins by UPLC-MS analysis.
Sequence of Cytochrome P450 2E1 (P05181 whole entry): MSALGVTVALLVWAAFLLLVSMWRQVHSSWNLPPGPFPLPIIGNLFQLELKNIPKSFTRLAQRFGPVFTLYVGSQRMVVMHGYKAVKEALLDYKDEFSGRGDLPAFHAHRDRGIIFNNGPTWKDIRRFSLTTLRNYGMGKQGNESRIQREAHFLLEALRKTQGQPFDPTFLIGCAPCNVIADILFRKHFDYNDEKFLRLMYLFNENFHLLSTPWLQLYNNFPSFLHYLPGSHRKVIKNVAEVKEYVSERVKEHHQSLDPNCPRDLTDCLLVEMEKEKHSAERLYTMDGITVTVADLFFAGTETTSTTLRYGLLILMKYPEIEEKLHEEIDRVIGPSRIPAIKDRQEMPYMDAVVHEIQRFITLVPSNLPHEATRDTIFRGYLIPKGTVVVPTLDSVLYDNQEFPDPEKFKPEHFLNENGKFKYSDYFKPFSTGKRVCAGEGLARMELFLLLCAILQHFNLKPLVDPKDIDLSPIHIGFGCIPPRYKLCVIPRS
The target in data set [5] is T3, Cytochrome P450 2C8 (Homo sapiens, UniProt P10632).
T3 sequence (P10632 whole entry): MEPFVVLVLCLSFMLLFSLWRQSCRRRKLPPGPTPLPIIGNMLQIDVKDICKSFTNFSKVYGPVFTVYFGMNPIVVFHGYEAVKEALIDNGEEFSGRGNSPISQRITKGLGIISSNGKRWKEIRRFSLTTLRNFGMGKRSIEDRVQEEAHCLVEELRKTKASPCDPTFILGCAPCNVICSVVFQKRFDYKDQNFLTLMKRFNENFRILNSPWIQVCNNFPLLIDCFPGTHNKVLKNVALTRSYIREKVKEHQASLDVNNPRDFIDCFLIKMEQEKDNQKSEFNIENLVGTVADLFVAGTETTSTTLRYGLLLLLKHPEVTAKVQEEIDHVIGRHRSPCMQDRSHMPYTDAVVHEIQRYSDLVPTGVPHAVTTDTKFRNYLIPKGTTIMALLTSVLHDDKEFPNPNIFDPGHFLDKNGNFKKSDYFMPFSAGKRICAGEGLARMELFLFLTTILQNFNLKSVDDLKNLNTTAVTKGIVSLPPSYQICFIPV
The data set can be described thus: Inhibition of CYP2C8 in human liver microsomes using amodiaquine as substrate preincubated for 5 mins followed by addition of NADPH-regenerating system and measured after 15 mins by UPLC-MS analysis.

Data set [6] in a line: Half life in human liver microsomes at 10 uM up to 2 hrs at 37 degC in presence of NADPH-regenerating system by UPLC/MS analysis.
Data set [7] concerns the target Cytochrome P450 2D6 (Homo sapiens, UniProt P10635). The data set can be described thus: Inhibition of CYP2D6 in human liver microsomes using dextromethorphan as substrate preincubated for 5 mins followed by addition of NADPH-regenerating system and measured after 15 mins by UPLC-MS analysis.
For data set [8], the target named is Cytochrome P450 2C9 (Homo sapiens, UniProt P11712). Put plainly: Inhibition of CYP2C9 in human liver microsomes using diclofenac as substrate preincubated for 5 mins followed by addition of NADPH-regenerating system and measured after 15 mins by UPLC-MS analysis.
Sequence of Cytochrome P450 2C9 (P11712 whole entry): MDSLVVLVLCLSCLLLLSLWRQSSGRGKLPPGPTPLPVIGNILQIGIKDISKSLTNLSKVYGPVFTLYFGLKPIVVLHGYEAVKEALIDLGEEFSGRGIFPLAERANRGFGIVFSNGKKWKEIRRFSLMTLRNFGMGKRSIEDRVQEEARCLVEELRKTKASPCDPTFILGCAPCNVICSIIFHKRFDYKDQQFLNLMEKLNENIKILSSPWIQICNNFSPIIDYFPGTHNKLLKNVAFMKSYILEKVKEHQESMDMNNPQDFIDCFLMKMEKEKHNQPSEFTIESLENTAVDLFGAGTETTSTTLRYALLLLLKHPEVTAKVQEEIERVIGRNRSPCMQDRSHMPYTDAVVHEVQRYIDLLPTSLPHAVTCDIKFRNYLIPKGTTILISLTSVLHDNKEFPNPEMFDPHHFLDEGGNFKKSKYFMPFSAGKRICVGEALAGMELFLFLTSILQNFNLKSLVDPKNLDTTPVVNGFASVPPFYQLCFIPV
Data set [9] addresses Cytochrome P450 2C19 (Homo sapiens, UniProt P33261). Put plainly: Inhibition of CYP2C19 in human liver microsomes using omeprazole as substrate preincubated for 5 mins followed by addition of NADPH-regenerating system and measured after 15 mins by UPLC-MS analysis.
For data set [10], the target named is T4, Cytochrome P450 2A6 (Homo sapiens, UniProt P11509).
T4 sequence (P11509 whole entry): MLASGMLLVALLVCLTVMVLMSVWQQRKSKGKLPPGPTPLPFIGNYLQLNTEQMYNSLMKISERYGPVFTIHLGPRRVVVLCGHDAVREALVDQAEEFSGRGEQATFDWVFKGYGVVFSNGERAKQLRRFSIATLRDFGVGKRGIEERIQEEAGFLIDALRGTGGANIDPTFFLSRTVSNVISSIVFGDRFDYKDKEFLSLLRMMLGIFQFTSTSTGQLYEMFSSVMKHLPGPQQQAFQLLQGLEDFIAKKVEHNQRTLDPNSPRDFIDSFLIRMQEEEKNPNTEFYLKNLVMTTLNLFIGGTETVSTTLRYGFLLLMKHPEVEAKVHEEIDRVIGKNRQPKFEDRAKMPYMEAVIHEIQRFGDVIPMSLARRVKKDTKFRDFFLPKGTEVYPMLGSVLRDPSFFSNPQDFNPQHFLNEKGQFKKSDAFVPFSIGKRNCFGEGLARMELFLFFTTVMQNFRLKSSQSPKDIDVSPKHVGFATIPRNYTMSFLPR
The data set can be described thus: Inhibition of CYP2A6 in human liver microsomes using coumarin as substrate preincubated for 5 mins followed by addition of NADPH-regenerating system and measured after 15 mins by UPLC-MS analysis.

Sequence of Cytochrome P450 2D6 (P10635 whole entry): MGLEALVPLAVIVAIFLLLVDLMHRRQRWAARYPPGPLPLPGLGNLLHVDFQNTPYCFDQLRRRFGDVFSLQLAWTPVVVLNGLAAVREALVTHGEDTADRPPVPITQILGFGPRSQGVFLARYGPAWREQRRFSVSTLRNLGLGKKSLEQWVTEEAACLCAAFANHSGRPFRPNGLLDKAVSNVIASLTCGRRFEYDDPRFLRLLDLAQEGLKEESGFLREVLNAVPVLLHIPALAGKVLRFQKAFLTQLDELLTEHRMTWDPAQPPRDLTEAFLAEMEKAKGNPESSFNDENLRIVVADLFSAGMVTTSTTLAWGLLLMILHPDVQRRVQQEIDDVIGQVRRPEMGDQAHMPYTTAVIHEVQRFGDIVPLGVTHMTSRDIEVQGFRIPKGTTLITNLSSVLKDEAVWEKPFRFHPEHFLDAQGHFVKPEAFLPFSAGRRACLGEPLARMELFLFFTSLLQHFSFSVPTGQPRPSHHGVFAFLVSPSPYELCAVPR
Sequence of Cytochrome P450 3A4 (P08684 whole entry): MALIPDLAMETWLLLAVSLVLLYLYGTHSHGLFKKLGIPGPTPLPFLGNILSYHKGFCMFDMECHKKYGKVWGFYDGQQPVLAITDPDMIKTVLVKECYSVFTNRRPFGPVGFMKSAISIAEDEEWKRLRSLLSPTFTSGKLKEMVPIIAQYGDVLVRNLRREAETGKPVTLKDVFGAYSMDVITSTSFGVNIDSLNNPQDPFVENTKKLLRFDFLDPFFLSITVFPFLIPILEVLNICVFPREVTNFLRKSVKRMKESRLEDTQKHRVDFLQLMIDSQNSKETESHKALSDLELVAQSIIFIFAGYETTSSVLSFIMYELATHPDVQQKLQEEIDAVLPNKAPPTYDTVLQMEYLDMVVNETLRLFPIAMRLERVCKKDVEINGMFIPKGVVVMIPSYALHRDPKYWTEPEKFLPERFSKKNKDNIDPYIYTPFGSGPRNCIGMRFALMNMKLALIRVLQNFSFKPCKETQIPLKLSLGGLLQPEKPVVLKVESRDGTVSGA
Sequence of Cytochrome P450 2C19 (P33261 whole entry): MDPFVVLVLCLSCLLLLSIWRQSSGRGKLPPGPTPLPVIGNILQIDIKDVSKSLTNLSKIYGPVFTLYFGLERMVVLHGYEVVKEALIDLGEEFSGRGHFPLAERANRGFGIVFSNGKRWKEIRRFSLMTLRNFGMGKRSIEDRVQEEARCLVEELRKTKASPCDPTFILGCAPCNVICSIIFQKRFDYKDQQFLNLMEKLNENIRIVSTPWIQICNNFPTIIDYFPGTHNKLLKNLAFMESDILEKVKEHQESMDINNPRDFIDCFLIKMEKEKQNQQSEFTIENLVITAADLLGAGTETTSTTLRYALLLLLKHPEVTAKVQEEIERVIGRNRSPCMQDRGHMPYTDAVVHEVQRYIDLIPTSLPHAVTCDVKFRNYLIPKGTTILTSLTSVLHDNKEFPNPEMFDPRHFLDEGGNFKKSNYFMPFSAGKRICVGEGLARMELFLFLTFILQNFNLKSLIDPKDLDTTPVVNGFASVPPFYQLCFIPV

The pIC50 is the IC50 on a negative log10 scale, so that one unit is a factor of ten. High values mean a low IC50, low ones a high IC50. Regarding `Cl.Cl.Cl.NCC#Cc1cnccc1-c1ccncc1`, the pIC50 in data set [1] is less than 4.60; in data set [2], less than 4.60; in data set [3], 4.68; in data set [4], less than 4.60; in [5], less than 4.30; in data set [7], 4.92. Besides, the t1/2 in [6] amounted to 36 min.
Regarding `NCC#Cc1cnccc1-c1cncnc1`, the pIC50 was less than 4.60 in data set [1]; less than 4.60 in data set [2]; less than 4.60 in [3]; less than 4.60 in data set [4]; less than 4.30 in [5]; less than 4.60 in data set [7].
For `NCC#Cc1cnccc1-c1ccco1`, the pIC50 was 5.55 in data set [8]; 4.96 in [1]; 5.43 in data set [9]; 5.30 in data set [2]; 5.85 in data set [3]; 5.72 in [4]. Moreover, the pIC50 in data set [5] was 5.12; in data set [7], 5.41.
For the compound `Cl.Cl.Cl.Cl.NCc1ccc(-c2cnccc2-c2cncnc2)s1`, the pIC50 was 4.41 in data set [1]; 4.40 in data set [2]; 4.60 in data set [3]; less than 4.30 in data set [4]; less than 4.60 in data set [5]. Moreover, the t1/2 in [6] is given as more than 120 min.
Take `Cl.Cl.Cl.NCc1ccc(-c2cnccc2-c2cccnc2)o1`: the negative-log IC50 (pIC50) in [8] was 4.55; in data set [1], 4.05; in [9] it was 4.89; in [2], 5.11; in [3] it was 5.36; in data set [4], 4.51. For the same compound, the pIC50 in [5] is less than 4.60. Also, in data set [6], the t1/2 was more than 120 min.
In the case of `COc1ccncc1C#CCN`, the pIC50 is 4.55 in data set [8]; less than 4.30 in data set [1]; 5.03 in [9]; 4.96 in data set [2]; 4.60 in data set [3]; 4.74 in [4]. The pIC50 in data set [5] and in data set [7] was less than 4.30 in each case.
With `Cl.Cl.Cl.Cl.NCc1ccc(-c2cnccc2-c2cncnc2)o1`, the pIC50 was less than 4.60 in [8]; less than 4.60 in data set [1]; less than 4.60 in data set [9]; less than 4.60 in [2]; 5.12 in data set [3]; less than 4.30 in data set [4]. In data set [5], this compound gave a negative-log IC50 (pIC50) of less than 4.30. In data set [6], the t1/2 is listed as more than 120 min.
Turning to `NCc1ccc(-c2cnccc2-c2ccco2)s1`, the negative logarithm of the IC50 (pIC50) in data set [8] is 5.36; in data set [1], 5.15; in data set [9], 5.85; in data set [2], 7.14; in data set [3] it was 6.70; in data set [4] it was 5.51. For the same compound, the pIC50 was 5.42 in [5] and less than 4.30 in [7].
Consider `NCC#Cc1cncnc1`, for which the pIC50 in [10] was less than 5.00.
Turning to `Cl.Cl.Cl.NCc1ccc(-c2cnccc2-c2ccncc2)s1`, the negative logarithm of the IC50 (pIC50) was 3.67 in [1]; 5.46 in [2]; 5.32 in data set [3]; 4.51 in [4]; less than 4.60 in data set [5]. In addition, the t1/2 in [6] worked out at 32 min.
Take `Cc1cncc(C#CCN)c1`: the pIC50 in data set [10] was less than 5.00.
Regarding `Cc1ccncc1C#CCN.Cl.Cl`, the negative-log IC50 (pIC50) in data set [8] was 4.44; in [1], 5.25; in data set [9], 5.10; in [2], 4.70; in data set [3] it was 4.96; in data set [4], 4.72. Also, the negative-log IC50 (pIC50) in data set [5] was 5.07; in [7] it was 5.62. Also, in data set [6], the t1/2 is 8.4 min.
As to `CCc1ccncc1C#CCN.Cl.Cl`, the negative logarithm of the IC50 (pIC50) in [1] is less than 4.30; in [2] it was 4.72; in data set [3], less than 4.30; in data set [4] it was 4.82; in [5], 4.60; in [7] it was 5.18. Besides, the t1/2 in data set [6] was determined as 9.8 min.
